Assay results as given in US20140328929A1, “Method of Preventing Acute Graft-Versus-Host Disease using Oral Beclomethasone Dipropionate” (Soligenix, Inc., priority 2011, published 2014).
“Also recorded” adds a separate entry of the source.

Legend:
[1] = tested on: acute GVHD; test: Double-blind, randomized placebo-controlled phase II study of prophylactic oral BDP: efficacy and exploratory analyses; assay type: in vivo, human
Text: Patients who had allogeneic hematopoietic cell transplantation with marrow or growth factor-mobilized blood cells from HLA-A, -B, -C, -DRB1, and HLA-DQB1-allele matched or single-allele or antigen mismatched related or unrelated donors after a myeloablative conditioning regimen (>800 cGy total body irradiation [TBI] and cyclophosphamide or high-dose busulfan and cyclophosphamide) were eligible for this study. Patients who had transplantation with cord blood cells and those who were enrolled in studies that involved depletion of T cells from the graft or administration of T cell-depleting antibodies before transplantation were excluded. Patients with body weight <35 kg were also excluded because lower-dose formulations of the study drug were not available. All participants gave informed consent as documents with the use of forms approved by institutional review committees at the Fred Hutchinson Cancer Research Center and Hackensack University Medical Center.
(§1) All participants received a standard regimen of methotrexate and tacrolimus after transplantation as prophylaxis against acute GVHD.[10] Methotrexate was given at 15 mg/m^2 on day 1 after HCT and 10 mg/m^2 on days 3, 6 and 11. […] Administration of the study drug began at the start of the conditioning regimen and continued through day 75 after transplantation. Patients who were not able to ingest the study drug because of mucositis continued their participation in the study. […] Institutional standards were used for antibacterial and antifungal prophylaxis.
The primary pre specified endpoint of the study was development of acute GVHD with severity sufficient to require systemic immunosuppressive treatment on or before day 90 after transplantation such as: a) prednisone or its equivalent at a 1 mg/kg/day, b) systemic immunosuppressive agents other than those in the GVHD prophylactic regimen in lieu of high-dose glucocorticoids, or c) substitution of one calcineurin inhibitor for the other in the GVHD prophylactic regimen in order to treat overt GVHD. The following actions were not considered as an indication of acute GVHD with severity sufficient to require systemic immunosuppressive treatment: a) administration of high-dose glucocorticoids for indications other than acute GVHD, b) substitution of one calcineurin inhibitor for another in the GVHD prophylactic regimen in order to manage toxicity, c) increase in the dose of the calcineurin inhibitor originally prescribed for GVHD prophylaxis in order to suppress overt manifestations of acute GVHD. For purposes of the primary endpoint, extracorporeal photopheresis was considered as systemic immunosuppressive treatment, but administration of psoralen and UV irradiation was not.
In the assessment of the acute GVHD index score, parenteral nutrition was employed as a surrogate for oral caloric intake less than 40% of requirements.
For purposes of sample size estimation, we assumed that 60% of the participants in the placebo arm would require systemic glucocorticoid treatment for acute GVHD. […] Based on historical results from our center, we estimated a frequency of grade IIa GVHD at approximately 25%. […] An interim analysis was conducted after 69 patients were enrolled, with a plan to end the trial if the probability of rejecting the null hypothesis had been less than 33%. This criterion was not met, and the remaining patients were accrued as originally planned.
The primary endpoint was analyzed as a binomial outcome with differences evaluated by the unadjusted x^2 test with stratification according to donor type (related vs. unrelated) and pretransplant risk category (chronic myeloid leukemia in chronic phase, refractory anemia without excess blasts or other hematologic malignancy in remission vs. more advanced malignancy). Other endpoints were evaluated by x^2 test, Student's t-test, Wilcoxon rank sum test or log-rank test as appropriate, with no adjustment to the computed significance level to account for the interim analysis. […]

[2] = Same phase II study: assessment of safety (adverse outcomes, gastrointestinal adverse events, bacteremia, mucositis); assay type: in vivo
Description: as §1
The primary endpoint was analyzed as a binomial outcome with differences evaluated by the unadjusted x^2 test with stratification according to donor type (related vs. unrelated) and pretransplant risk category (chronic myeloid leukemia in chronic phase, refractory anemia without excess blasts or other hematologic malignancy in remission vs. more advanced malignancy). Other endpoints were evaluated by x^2 test, Student's t-test, Wilcoxon rank sum test or log-rank test as appropriate, with no adjustment to the computed significance level to account for the interim analysis. Results were analyzed with data available as of Sep. 15, 2010.
These included the hazards of cytomegalovirus and invasive yeast or mold infection, cGVHD, death without recurrent malignancy, recurrent malignancy, death from any cause, and the composite of death or recurrent malignancy. […] Other gastrointestinal adverse events occurred infrequently.
GVHD, bacteremia and recurrent malignancy were the most frequent serious adverse events. Other serious adverse events occurred at frequencies <5%. […] For this reason, we evaluated the distribution of all bacteremia episodes. Because participants took the study drug until day 75 after transplantation and then stopped, we included all bacteremia episodes that occurred before day 103. […] We observed a single episode of Enterococcus bacteremia among the 46 participants in the placebo arm, on day 15 after transplantation.
Time-to-first event analyses were used to evaluate the risks of bacteremia in the BDP arm compared to the placebo arm. Follow-up was censored at 103 days after HCT, 28 days after the end of study drug administration. The hazard ratios were 1.38 (95% CI 0.8-2.5) for any bacteremia, 1.32 (95% CI 0.7-2.5) for gram-positive bacteremia, and 5.24 (95% CI 0.7-41) for Enterococcus bacteremia.
For this reason, we evaluated the severity of mucositis in the two arms for the 118 patients who had evaluations by an oral medicine specialist on at least one occasion after transplantation at the FHCRC.

[3] = tested on: adrenal function; test: Cosyntropin stimulation test at approximately day 75 after transplantation; assay type: in vivo, human; settings: 26 of the 30 participants tested in the BDP arm; no systemic glucocorticoid treatment; about day 75
[4] = tested on: gastrointestinal GVHD; settings: oral BDP plus 10 day course of prednisone (1 mg/kg/day) with 7 day taper; grade II gastrointestinal GVHD; cited from earlier work
[5] = cited from earlier work
[6] = BDP >90% adherent group, N = 50
[7] = BDP patients with ≧90% adherence

Structure (SMILES): CCC(=O)OCC(=O)[C@@]1(OC(=O)CC)[C@@H](C)C[C@H]2[C@@H]3CCC4=CC(=O)C=C[C@]4(C)[C@@]3(Cl)[C@@H](O)C[C@@]21C [BDP, beclomethasone 17,21-dipropionate]
- Systemic treatment for GVHD among BDP patients with ≧90% adherence ([1]; 50 BDP patients, 27 treated): 54%
- Cumulative Prednisone Dose through Day 75 Post HCT ([1]; BDP 50-90% adherent, number 34): 2105 mg
- Mean of the Average Dose (prednisone) through Day 75 Post HCT ([1]; BDP 50-90% adherent, number 34): 28.7 mg
- Cumulative Prednisone Dose through Day 75 Post HCT ([1]; BDP <50% adherent, number 8): 2048 mg
- Mean of the Average Dose (prednisone) through Day 75 Post HCT ([1]; BDP <50% adherent, number 8): 29.2 mg
- Overall Mortality, N (%) [1, 6]: 7 (14) N (%)
- Relapse, N (%) [1, 6]: 9 (18) N (%)
- Cumulative Prednisone Dose through Day 75 Post HCT ([1]; BDP >90% adherent, number 50): 1145 mg
- Mean of the Average Dose (prednisone) through Day 75 Post HCT ([1]; BDP >90% adherent, number 50): 15.4 mg
- BDP >90% adherent group requiring systemic treatment for acute GVHD before day 90, N (%) ([1]; BDP N = 50, >90% adherent): 27 (54) N (%)
- Systemic treatment for acute GVHD before day 90, N (%) PRIMARY ENDPOINT ([1]; BDP N = 92, Table 5): 62 (67) N (%)
- Gastrointestinal GVHD proven by biopsy, events ([1]; BDP arm): 44
- Secondary systemic treatment for GVHD, events ([1]; BDP arm): 8
- Topical treatment for acute GVHD, events ([1]; BDP arm): 58
- Average weekly gut morbidity score (SD) ([1]; BDP arm N = 92): 0.63 (0.36)
- Average weekly gut morbidity score after day 21 (SD) ([1]; BDP arm N = 92): 0.47 (0.48)
- Average weekly liver morbidity score (SD) ([1]; BDP arm N = 92): 0.11 (0.31)
- Average weekly overall morbidity score, mean (SD) ([1]; BDP arm N = 92): 1.22 (0.53)
- Average weekly skin morbidity score (SD) ([1]; BDP arm N = 92): 0.30 (0.42)
- Peak GVHD grade 0-1, N (%) ([1]; BDP arm N = 92): 31 (34) N (%)
- Peak GVHD grade IIa, N (%) ([1]; BDP arm N = 92): 41 (45) N (%)
- Peak GVHD grade IIb-IV, N (%) ([1]; BDP arm N = 92): 20 (22) N (%)
- Peak overall morbidity score, mean (SD) ([1]; BDP arm N = 92): 2.54 (0.62)
- Systemic treatment for acute GVHD before day 90, N (%) ([1]; BDP arm N = 92, Table 2): 60 (65) N (%)
- Cumulative mg/kg prednisone-equivalent systemic glucocorticoid dose to day 75, mean (SD) ([1]; BDP arm N = 92, for GVHD, not including steroid treatment for other indications): 33.1 (23.3) mg/kg
- Systemic treatment for acute GVHD, HR ([1]; BDP arm compared to placebo arm, 95% CI 0.6-1.4): 0.92
- Participants given systemic glucocorticoid treatment for GVHD ([1]; BDP arm, 60 participants): 65%
- Grades IIb-III GVHD ([1]; BDP arm, peak OMI scores >20, seven of 36 participants): 19%
- Grades IIb-III GVHD ([1]; BDP arm, peak OMI scores ≦20, nine of 43 participants): 21%
- Cumulative incidence of grades III-IV GVHD ([1]; BDP arm, 95% CI 1%-12%): 7%
- Systemic treatment for acute GVHD, events ([1]; BDP arm, withdrawal or recurrent malignancy as competing event): 61
- Incidence of relapse [1, 7]: 18%
- Overall mortality [1, 7]: 14%
- Secondary systemic treatment for GVHD, HR ([1]; BDP vs placebo, 95% CI 0.2-1.9): 0.65
- Topical treatment for acute GVHD, HR ([1]; BDP vs placebo, 95% CI 0.6-1.4): 0.89
- Gastrointestinal GVHD proven by biopsy, HR ([1]; BDP vs placebo, 95% CI 0.7-2.2): 1.26
- Cumulative incidence of grades IIb-IV GVHD ([1]; day 100 after transplantation, BDP arm, 95% CI 13%-30%): 22%
- Cumulative incidence of grades IIa-IV GVHD ([1]; day 100 after transplantation, BDP arm, 95% CI 57%-76%): 66%
- Death from any cause, events ([2]; BDP arm): 22
- Death or recurrent malignancy, events ([2]; BDP arm): 29
- Death without recurrent malignancy, events ([2]; BDP arm): 10
- Death without recurrent malignancy, HR ([2]; BDP vs placebo, 95% CI 0.4-5.8): 1.60
- Death or recurrent malignancy, HR ([2]; BDP vs placebo, 95% CI 0.5-1.7): 0.93
- Death from any cause, HR ([2]; BDP vs placebo, 95% CI 0.5-2.0): 0.95
- Participants with Enterococcus bacteremia episodes among those who received total body irradiation ([2]; BDP, of the 61 participants (both arms) with total body irradiation): 9
- Participants with Enterococcus bacteremia episodes among those who received busulfan and cyclophosphamide ([2]; BDP, of the 77 participants (both arms)): 1
- CMV viremia or disease, HR ([2]; human, in vivo): 0.93
- CMV viremia or disease, events ([2]; human, in vivo): 23
- Chronic GVHD requiring systemic treatment, HR ([2]; human, in vivo): 1.05
- Chronic GVHD requiring systemic treatment, events ([2]; human, in vivo): 31
- Colitis, N (%) ([2]; human, in vivo): 0 (0) N (%)
- Enteritis, N (%) ([2]; human, in vivo): 0 (0) N (%)
- Episodes of Enterococcus bacteremia ([2]; human, in vivo): 12 episodes
- Episodes of Enterococcus bacteremia after day 57 ([2]; human, in vivo): 3 episodes
- Episodes of Enterococcus bacteremia before day 17 after transplantation ([2]; human, in vivo): 9 episodes
- Episodes of gram-negative bacteremia ([2]; human, in vivo): 15 episodes
- Esophagitis, N (%) ([2]; human, in vivo): 8 (9) N (%)
- GI hemorrhage, N (%) ([2]; human, in vivo): 2 (2) N (%)
- GI infection (any), N (%) ([2]; human, in vivo): 22 (24) N (%)
- GI infection: C. difficile, N (%) ([2]; human, in vivo): 16 (17) N (%)
- GI infection: CMV enteritis, N (%) ([2]; human, in vivo): 2 (2) N (%)
- GI infection: Other viral infection, N (%) ([2]; human, in vivo): 2 (2) N (%)
- GI infection: Other, N (%) ([2]; human, in vivo): 3 (3) N (%)
- GI infection: Yeast or mold, N (%) ([2]; human, in vivo): 0 (0) N (%)
- GI ulceration or erosion, N (%) ([2]; human, in vivo): 5 (5) N (%)
- Gastritis, N (%) ([2]; human, in vivo): 2 (2) N (%)
- Gastrointestinal ulceration or erosion diagnosed by endoscopy ([2]; human, in vivo): 5 participants
- Ileus, N (%) ([2]; human, in vivo): 1 (0) N (%)
- Invasive yeast or mold infection, HR ([2]; human, in vivo): 0.50
- Invasive yeast or mold infection, events ([2]; human, in vivo): 1
- Number of serious adverse events related to bacteremia ([2]; human, in vivo): 14
- Number of serious adverse events related to mucositis ([2]; human, in vivo): 5
- Participants diagnosed with gastrointestinal infection ([2]; human, in vivo): 24%
- Recurrent malignancy, HR ([2]; human, in vivo): 0.77
- Recurrent malignancy, events ([2]; human, in vivo): 19
- Typhlitis, N (%) ([2]; human, in vivo): 1 (1) N (%)
- Oral infection, N (%) ([2]; human, in vivo, po): 3 (3) N (%)
- Participants with Enterococcus bacteremia ([2]; of the 92 participants in the BDP arm, before day 103): 10 participants
- Abnormal adrenal function [3]: 87%
- Efficacy for treatment of gastrointestinal GVHD in two previous randomized trials [4]: more effective than prednisone alone; also recorded: effective
- Protein binding [5]: protein-bound
